Experimental findings from patent publication US20100056508A1, “AMINE DERIVATIVES AND THEIR USE IN BETA-2-ADRENORECEPTOR MEDIATED DISEASES” (ASTRAZENECA AB, priority 2006, published 2010) are described below.

In experiment [1] the target is T1, recombinant human α1D receptor (Homo sapiens, UniProt P25100).
T1 construct: expressed in transfected cells; host or cells: human embryonic kidney 293 cells (HEK93 [sic]), membranes
T1 sequence (P25100 1-572): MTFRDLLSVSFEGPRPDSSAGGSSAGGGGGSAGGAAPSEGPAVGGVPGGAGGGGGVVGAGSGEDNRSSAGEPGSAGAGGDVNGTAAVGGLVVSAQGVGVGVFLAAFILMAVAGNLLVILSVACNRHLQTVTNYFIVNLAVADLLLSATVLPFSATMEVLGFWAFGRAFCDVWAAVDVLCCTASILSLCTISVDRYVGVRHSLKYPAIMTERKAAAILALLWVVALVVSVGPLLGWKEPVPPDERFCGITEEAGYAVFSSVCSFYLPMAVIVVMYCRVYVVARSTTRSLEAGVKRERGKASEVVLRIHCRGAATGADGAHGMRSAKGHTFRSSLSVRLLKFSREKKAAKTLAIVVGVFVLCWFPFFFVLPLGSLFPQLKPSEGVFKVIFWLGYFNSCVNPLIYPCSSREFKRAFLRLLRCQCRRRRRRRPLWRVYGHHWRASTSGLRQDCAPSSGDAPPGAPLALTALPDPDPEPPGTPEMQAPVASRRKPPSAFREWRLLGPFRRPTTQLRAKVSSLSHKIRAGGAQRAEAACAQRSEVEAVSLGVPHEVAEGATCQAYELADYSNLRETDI
Kind of experiment: Adrenergic α1D selectivity assay, [3H]-prazosin binding to membranes. The conditions noted are these: inhibition of [3H]-prazosin binding, HEK cell membranes, read-out: α1 bind pIC50 (converted). Put shortly:
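Competition binding on HEK293 membranes with recombinant human α1D receptor, 0.3 nM [3H]-prazosin, 50 mM HEPES/1 mM EDTA pH 7.4, 2 h at room temperature; filtration and scintillation counting. Non-specific binding defined with 10 μM BMY7378. pIC50 from four-parameter logistic fit of specific-binding inhibition.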

Experiment [2] has as its target T2, Adrenergic β2 (Homo sapiens, UniProt P07550).
T2 construct: Adherent H292 cells were removed from tissue culture flasks; endogenous in cells; host or cells: H292 cells
As to the kind of experiment: Adrenergic β2 mediated cAMP production in H292 cells (AlphaScreen cAMP detection). The experiment is classed as cell-based. Details: key to β2 Int Act: fraction of formoterol maximum activity (formoterol = 1). The settings on record: for β2 Int Act: Intrinsic Activity as a fraction relative to the maximum activity determined for formoterol; for EC50: cAMP production, 60 minutes at room temperature, 300 μM rolipram, read-out: β2 pEC50 (converted). Put shortly: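 H292 cells pre-treated 10 min with rolipram (300 μM final), then given agonist for 60 min at room temperature in HBSS/10 mM HEPES pH 7.4, 1.6% DMSO final. Lysate cAMP measured by AlphaScreen against a cAMP standard curve. Four-parameter fit gives pEC50; intrinsic activity relative to formoterol maximum.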
A general note: cAMP levels reflect the balance of adenylyl cyclase and phosphodiesterase activity.

SMILES strings stand for the structures. Structures can show the parent of a compound that is named as a salt.

T2 sequence (P07550 whole entry): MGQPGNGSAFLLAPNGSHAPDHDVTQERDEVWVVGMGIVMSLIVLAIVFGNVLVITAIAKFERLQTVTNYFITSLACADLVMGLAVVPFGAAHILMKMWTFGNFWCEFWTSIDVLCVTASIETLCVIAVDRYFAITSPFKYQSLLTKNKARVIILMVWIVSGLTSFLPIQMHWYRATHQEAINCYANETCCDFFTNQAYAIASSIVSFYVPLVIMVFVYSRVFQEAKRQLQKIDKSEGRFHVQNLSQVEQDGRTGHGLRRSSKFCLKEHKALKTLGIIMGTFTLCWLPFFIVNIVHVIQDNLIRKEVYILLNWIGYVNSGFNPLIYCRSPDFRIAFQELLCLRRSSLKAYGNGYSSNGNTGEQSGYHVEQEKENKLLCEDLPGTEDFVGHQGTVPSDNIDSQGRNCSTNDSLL

Take `O=C1COc2c(CCNCCN(C(=O)CCNCCc3cc(F)cc(Cl)c3)C3CCCCCC3)ccc(O)c2N1` [Example 66, 3-(3-Chloro-5-fluorophenethylamino)-N-cycloheptyl-N-(2-(2-(5-hydroxy-3-oxo-3,4-dihydro-2H-benzo[b][1,4]oxazin-8-yl)ethylamino)ethyl)propanamide bis(trifluoroacetate)]: the IC50 in experiment [1] was 0.398 µM. Further, in experiment [2], the “β2 Int Act” value is given as 0.99 and the EC50 is 0.00251 µM.
Taken in the same sequence, the figures for `O=C1COc2c(CCNCCN(C(=O)CCNCCc3ccc(F)c(F)c3)C3CCCCCC3)ccc(O)c2N1` [Example 67, N-Cycloheptyl-3-(3,4-difluorophenethylamino)-N-(2-(2-(5-hydroxy-3-oxo-3,4-dihydro-2H-benzo[b][1,4]oxazin-8-yl)ethylamino)ethyl)propanamide bis(trifluoroacetate)] were 0.2 µM, 0.87 and 0.00316 µM.
On to `O=C1COc2c(CCNCCN(C(=O)CCNCCc3cccc(Cl)c3)C3CCCCCC3)ccc(O)c2N1` [Example 68, 3-(3-Chlorophenethylamino)-N-cycloheptyl-N-(2-(2-(5-hydroxy-3-oxo-3,4-dihydro-2H-benzo[b][1,4]oxazin-8-yl)ethylamino)ethyl)propanamide bis(trifluoroacetate)], for which the IC50 in experiment [1] is 0.158 µM. In addition, in experiment [2], the “β2 Int Act” value worked out at 0.93 and the EC50 was 0.00398 µM.
Taken in the same sequence, the figures for `O=C1COc2c(CCNCCN(C(=O)CCNCCc3cccc(F)c3)C3CCCCCC3)ccc(O)c2N1` [Example 69, N-Cycloheptyl-3-(3-fluorophenethylamino)-N-(2-(2-(5-hydroxy-3-oxo-3,4-dihydro-2H-benzo[b][1,4]oxazin-8-yl)ethylamino)ethyl)propanamide bis(trifluoroacetate)] were 0.2 µM, 0.88 and 0.00158 µM.
In the case of `O=C1COc2c(CCNCCN(C(=O)CCOCCc3ccccc3)C3CCCCC3)ccc(O)c2N1` [Example 70, N-Cyclohexyl-N-(2-(2-(5-hydroxy-3-oxo-3,4-dihydro-2H-benzo[b][1,4]oxazin-8-yl)ethylamino)ethyl)-3-phenethoxypropanamide trifluoroacetate], in experiment [1], the IC50 was 1.58 µM. In experiment [2], the “β2 Int Act” value was found to be 0.97 and the EC50 is 0.00398 µM.
In the case of `O=C1COc2c(CCNCCN(C(=O)CCOCCc3cccc(F)c3)C3CCCCC3)ccc(O)c2N1` [Example 74, N-Cyclohexyl-3-(3-fluorophenethoxy)-N-(2-(2-(5-hydroxy-3-oxo-3,4-dihydro-2H-benzo[b][1,4]oxazin-8-yl)ethylamino)ethyl)propanamide trifluoroacetate], the IC50 in experiment [1] is 0.794 µM. For the same compound, in experiment [2], the “β2 Int Act” value amounted to 0.97 and the EC50 is 0.002 µM.
Take `O=C1COc2c(CCNCCN(C(=O)CCOCCc3ccc(F)cc3)C3CCCCC3)ccc(O)c2N1` [Example 75, N-Cyclohexyl-3-(4-fluorophenethoxy)-N-(2-(2-(5-hydroxy-3-oxo-3,4-dihydro-2H-benzo[b][1,4]oxazin-8-yl)ethylamino)ethyl)propanamide trifluoroacetate]: the IC50 in experiment [1] was 0.631 µM. Also, in experiment [2], the “β2 Int Act” value was found to be 0.96 and the EC50 was 0.00251 µM.
With `O=C1COc2c(CCNCCN(C(=O)CCOCCc3ccccc3F)C3CCCCC3)ccc(O)c2N1` [Example 76, N-Cyclohexyl-3-(2-fluorophenethoxy)-N-(2-(2-(5-hydroxy-3-oxo-3,4-dihydro-2H-benzo[b][1,4]oxazin-8-yl)ethylamino)ethyl)propanamide trifluoroacetate], the IC50 in experiment [1] was 1 µM. Moreover, in experiment [2], the “β2 Int Act” value amounted to 1.1 and the EC50 is 0.00158 µM.
Taken in the same sequence, the figures for `O=C1COc2c(CCNCCN(C(=O)CCOCCc3cccc(Cl)c3)C3CCCCC3)ccc(O)c2N1` [Example 77, 3-(3-Chlorophenethoxy)-N-cyclohexyl-N-(2-(2-(5-hydroxy-3-oxo-3,4-dihydro-2H-benzo[b][1,4]oxazin-8-yl)ethylamino)ethyl)propanamide trifluoroacetate] were 0.794 µM, 0.97 and 0.002 µM.
Taken in the same sequence, the figures for `CC[C@@H](C)N(CCNCCc1ccc(O)c2[nH]c(=O)ccc12)C(=O)CCOCCc1ccccc1.Cl` [Example 79, (R)—N-sec-Butyl-N-(2-(2-(8-hydroxy-2-oxo-1,2-dihydroquinolin-5-yl)ethylamino)ethyl)-3-phenethoxypropanamide hydrochloride] were 0.631 µM, 0.92 and 0.0501 µM.
In the same order, the values of `CC(C)[C@@H](C)N(CCNCCc1ccc(O)c2[nH]c(=O)ccc12)C(=O)CCOCCc1ccccc1.Cl` [Example 80, (R)—N-(2-(2-(8-Hydroxy-2-oxo-1,2-dihydroquinolin-5-yl)ethylamino)ethyl)-N-(3-methylbutan-2-yl)-3-phenethoxypropanamide hydrochloride] are 0.501 µM, 1.04 and 0.0251 µM.
